Experimental findings from patent EP3505512B1, “QUATERNARY NICOTINAMIDE DERVIATIVES AS PRECURSORS FOR RELEASE OF MNA” (UNIWERSYTET JAGIELLONSKI, priority 2017, dated 2019) are described below.

Data set [1] in a line: esterase dependent hydrolysis: incubation in fresh rat plasma, LC-MS/MS determination of parent compound, MNAF and MNA. Particulars: for release of intermediate compound MNAF / rate of hydrolysis (property depending on structure): group property, matrix not given; for hydrolysis of parent compound during plasma incubation: fresh rat plasma, 37°C, incubation 120 min.
A short description of data set [2]: hydrolytic stability in solution: incubation in PBS buffer, LC-MS/MS determination of parent compound, MNAF and MNA. The data set is classed as physicochemical. The following applies: 37°C, incubation 120 min.
Procedure: The invention also concerns the method of releasing N1-methylnicotinamide (MNA), which is characterized by the following steps: pyridine salts derivatives, as defined above, are incubated in a shaking water bath at 37°C for 120 minutes, then samples are taken 1, 5, 15, 30, 60, 90 and 120 minutes after the start of incubation, by taking 50 µL of a sample to which 500 µL of acetonitrile cooled to -20°C was added to interrupt the hydrolysis reaction, then samples were cooled for 20 minutes at 4°C for protein precipitation, and then centrifuged under the following conditions: 4°C, 15,000 x rpm, 15 min, and the supernatant was transferred to separate chromatographic tubes and 5 µL was applied to the chromatographic column. Preferably, when MNA release is studied in PBS buffer - testing hydrolytic stability in solution and/or in rat plasma - additionally testing plasma esterase-dependent hydrolysis.
For that purpose, the studied compounds were incubated: (1) in PBS buffer - testing hydrolytic stability in solution; (2) in rat plasma - testing additionally esterase dependent hydrolysis. Incubation was carried out in a shaking water bath at 37°C. The studied compounds were added to the prepared biological matrix and incubated for 120 min. Samples were collected 1, 5, 15, 30, 60, 90 and 120 min. after the beginning of incubation, by taking 50 µL of a sample to which 500 µL of acetonitrile cooled to -20°C was added to stop the hydrolysis reaction. The samples were cooled for 20 minutes at 4°C in order to precipitate proteins and then centrifuged under the following conditions: 4°C, 15,000 x rpm, 15 min. The supernatant was transferred to separate chromatographic tubes and 5 µL was injected onto chromatographic column.
The analytical system used for determination of MNA and MNAF concentrations consisted of the UltiMate 3000 liquid chromatograph (Dionex, Thermo Scientific) and the Quantum Ultra TSQ mass spectrometer (Thermo Scientific). For chromatographic separation the Aquasil C18 (4.6 x 150 mm, 5 µm, Thermo Scientific) analytical column was used with isocratic mobile phase, a mixture of 0.1% formic acid in acetonitrile and 5mM ammonium formate (80: 20, v/v)) elution ,at the flow rate of 0,8 mL/min. The detection was performed in the selected reaction monitoring (SRM) mode in positive ionization, monitoring the following ion transitions: m/z 137 → 94 (CE=19V) for MNA, m/z 167 → 137 (CE10) for MNAF, m/z 140 → 97 (CE=19V) for MNA-d3 used as internal standard. The parameters of the ion source were as follows: gas pressure 30 psi (sheath gas) and 10 psi (auxiliary gas), ion spray voltage 4500V, H-ESI ison sourse vaporizer temperature 300°C, capillary temperature 300°C, pressure in the collision chamber 1.5 mTorr (argon).

Regarding “3-(isobutanoyloxymethylcarbamoyl)-1-methylpyridinium iodide [C-2649]”, the “release of intermediate compound MNAF / rate of hydrolysis (property depending on structure)” value in data set [1] is given as “quick release of an intermediate compound MNAF”.
On to “3-[(2,2-dimethylpropionyl oxymethyl)carbamoyl]-1-methylpyridinium iodide [C-2647]”, for which the “release of intermediate compound MNAF / rate of hydrolysis (property depending on structure)” value in data set [1] was “quick release of an intermediate compound MNAF”.
As to “iodide [(1-methylpyridine-1-ium-3-carbonyl)amino] methyl-1-methylcyclohexanecarboxylate [C-2959]”, the “release of intermediate compound MNAF / rate of hydrolysis (property depending on structure)” value in data set [1] is “quick release of an intermediate compound MNAF”.
Consider “3-(methoxymethylcarbamoyl)-1-methylpyridinium iodide [C-2823]”, for which, in data set [2], the “stability in PBS buffer” value is given as “high stability” and the “changes in concentrations of parent compound during incubation in PBS solution” value is reported as “No changes in concentrations”. Further, in data set [1], the “hydrolysis of parent compound during plasma incubation” value is “slow and slight hydrolysis”; the “release of intermediate compound MNAF / rate of hydrolysis (property depending on structure)” value is reported as “hydrolyse very slowly”.
In the case of “3-[(adamanthan-1-carbonyl oxymethyl)carbamoyl]-1-methylpyridinium iodide [C-2808]”, in data set [2], the “stability in PBS buffer” value is “high stability” and the “changes in concentrations of parent compound during incubation in PBS solution” value is recorded as “No changes in concentrations”. In addition, in data set [1], the “hydrolysis of parent compound during plasma incubation” value was “slow and slight hydrolysis”; the “release of intermediate compound MNAF / rate of hydrolysis (property depending on structure)” value is reported as “hydrolyse very slowly”.
“3-(benzoyloxymethylcarbamoyl)-1-methylpyridinium iodide [C-2648]”: in data set [1], the “release of intermediate compound MNAF / rate of hydrolysis (property depending on structure)” value was “quick release of an intermediate compound MNAF”.
“3-({[(3,4,5-trimethoxybenzoyl)oxy]methyl}carbamoyl)-1 methylpyridinium iodide [C-2942]”: the “release of intermediate compound MNAF / rate of hydrolysis (property depending on structure)” value in data set [1] was “quick release of an intermediate compound MNAF”.
On the same count and under the same terms, under “3-(Acetoxymethylcarbamoyl)-1-methylpyridinium iodide [C-2578]” stands “quick release of an intermediate compound MNAF”.
